Source: the supplement of paper PMC10307832

Assays:
Test in all cases: relative viability (nuclei count vs DMSO), 5 days (fraction); higher = more cells survive
NCI-H1975 = test system: NCI-H1975
Summary of the method: (§1)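 Relative viability is defined as nuclei in treated wells over nuclei in vehicle wells. Duplicate plates were run and medians reported. Lung cancer cell lines in 1536-well plates were dosed by pin tool one day after seeding, with one drug or with a fixed anchor-drug dose plus five library-drug doses (not always all listed) in √10 steps, and nuclei were counted after 5 days.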

HCC-366 = test system: HCC-366
Summary of the method: as §1

SK-LU-1 = test system: SK-LU-1
Summary of the method: as §1

HARA = test system: HARA
Summary of the method: as §1

NCI-H838 = test system: NCI-H838
Summary of the method: as §1

NCI-H520 = test system: NCI-H520
Summary of the method: as §1

LK-2 = test system: LK-2
Summary of the method: as §1

NCI-H1792 = test system: NCI-H1792
Summary of the method: as §1

LOU-NH91 = test system: LOU-NH91
Summary of the method: as §1

NCI-H1650 = test system: NCI-H1650
Summary of the method: as §1

COR-L23 = test system: COR-L23
Summary of the method: as §1

NCI-H1734 = test system: NCI-H1734
Summary of the method: as §1

ChaGo-K-1 = test system: ChaGo-K-1
Summary of the method: as §1

NCI-H1355 = test system: NCI-H1355
Summary of the method: as §1

NCI-H2405 = test system: NCI-H2405
Summary of the method: as §1

LCLC-97TM1 = test system: LCLC-97TM1
Summary of the method: as §1

NCI-H460 = test system: NCI-H460
Summary of the method: as §1

HCC-15 = test system: HCC-15
Summary of the method: as §1

NCI-H1993 = test system: NCI-H1993
Summary of the method: as §1

201T = test system: 201T
Summary of the method: as §1

NCI-H2085 = test system: NCI-H2085
Summary of the method: as §1

HCC-78 = test system: HCC-78
Summary of the method: as §1

NCI-H3122 = test system: NCI-H3122
Summary of the method: as §1

Molecule `C=C1C(=O)O[C@@H](CCCCCCCC)[C@@H]1C(=O)O` [C-75] + O=C(c1cc(Cc2n[nH]c(=O)c3ccccc23)ccc1F)N1CCN(C(=O)C2CC2)CC1 [Olaparib] (partner 8 µM) has a relative viability (NCI-H1975; first compound 0.08 µM) of 0.777, a relative viability (NCI-H1975; first compound 0.253 µM) of 0.817 and a relative viability (NCI-H1975; first compound 0.8 µM) of 0.755. It also gave a relative viability (NCI-H1975; first compound 2.53 µM) of 0.77, a relative viability (NCI-H1975; first compound 8 µM) of 0.741 and a relative viability (HCC-366; first compound 0.08 µM) of 0.349. For the same molecule, the relative viability (HCC-366; first compound 0.253 µM) was 0.49, the relative viability (HCC-366; first compound 0.8 µM) was 0.341 and the relative viability (HCC-366; first compound 2.53 µM) was 0.356. It also gave a relative viability (HCC-366; first compound 8 µM) of 0.347, a relative viability (SK-LU-1; first compound 0.08 µM) of 0.465 and a relative viability (SK-LU-1; first compound 0.253 µM) of 0.451. The relative viability (SK-LU-1; first compound 0.8 µM) was 0.454, the relative viability (SK-LU-1; first compound 2.53 µM) was 0.393 and the relative viability (SK-LU-1; first compound 8 µM) was 0.377. The relative viability (HARA; first compound 0.08 µM) was 0.76, the relative viability (HARA; first compound 0.253 µM) was 0.749 and the relative viability (HARA; first compound 0.8 µM) was 1.04. For the same molecule, the relative viability (HARA; first compound 2.53 µM) was 0.803, the relative viability (HARA; first compound 8 µM) was 0.715 and the relative viability (NCI-H838; first compound 0.08 µM) was 0.778. For the same molecule, the relative viability (NCI-H838; first compound 0.253 µM) was 0.757, the relative viability (NCI-H838; first compound 0.8 µM) was 0.738 and the relative viability (NCI-H838; first compound 2.53 µM) was 0.725. The relative viability (NCI-H838; first compound 8 µM) was 0.654, the relative viability (NCI-H520; first compound 0.08 µM) was 0.343 and the relative viability (NCI-H520; first compound 0.253 µM) was 0.358. It also gave a relative viability (NCI-H520; first compound 0.8 µM) of 0.269, a relative viability (NCI-H520; first compound 2.53 µM) of 0.321 and a relative viability (NCI-H520; first compound 8 µM) of 0.257. It also gave a relative viability (LK-2; first compound 0.08 µM) of 0.674, a relative viability (LK-2; first compound 0.253 µM) of 0.84 and a relative viability (LK-2; first compound 0.8 µM) of 0.64. It also gave a relative viability (LK-2; first compound 2.53 µM) of 0.596, a relative viability (LK-2; first compound 8 µM) of 0.502 and a relative viability (NCI-H1792; first compound 0.08 µM) of 0.384. For the same molecule, the relative viability (NCI-H1792; first compound 0.253 µM) was 0.438, the relative viability (NCI-H1792; first compound 0.8 µM) was 0.462 and the relative viability (NCI-H1792; first compound 2.53 µM) was 0.306. It also gave a relative viability (NCI-H1792; first compound 8 µM) of 0.431, a relative viability (LOU-NH91; first compound 0.08 µM) of 0.909 and a relative viability (LOU-NH91; first compound 0.253 µM) of 0.786. The relative viability (LOU-NH91; first compound 0.8 µM) was 0.878, the relative viability (LOU-NH91; first compound 8 µM) was 0.88 and the relative viability (NCI-H1650; first compound 0.08 µM) was 0.802. The relative viability (NCI-H1650; first compound 0.253 µM) was 0.878, the relative viability (NCI-H1650; first compound 0.8 µM) was 0.827 and the relative viability (NCI-H1650; first compound 8 µM) was 0.818. It also gave a relative viability (COR-L23; first compound 0.08 µM) of 0.353, a relative viability (COR-L23; first compound 0.253 µM) of 0.216 and a relative viability (COR-L23; first compound 0.8 µM) of 0.284. It also gave a relative viability (COR-L23; first compound 2.53 µM) of 0.325, a relative viability (COR-L23; first compound 8 µM) of 0.319 and a relative viability (NCI-H1734; first compound 0.08 µM) of 0.546. The relative viability (NCI-H1734; first compound 0.253 µM) was 0.569, the relative viability (NCI-H1734; first compound 0.8 µM) was 0.277 and the relative viability (NCI-H1734; first compound 2.53 µM) was 0.506. The relative viability (NCI-H1734; first compound 8 µM) was 0.608, the relative viability (ChaGo-K-1; first compound 0.08 µM) was 0.401 and the relative viability (ChaGo-K-1; first compound 0.253 µM) was 0.392. The relative viability (ChaGo-K-1; first compound 0.8 µM) was 0.411, the relative viability (ChaGo-K-1; first compound 2.53 µM) was 0.358 and the relative viability (ChaGo-K-1; first compound 8 µM) was 0.401. The relative viability (NCI-H1355; first compound 0.08 µM) was 0.709, the relative viability (NCI-H1355; first compound 0.253 µM) was 0.767 and the relative viability (NCI-H1355; first compound 0.8 µM) was 0.76. For the same molecule, the relative viability (NCI-H1355; first compound 2.53 µM) was 0.647, the relative viability (NCI-H1355; first compound 8 µM) was 0.753 and the relative viability (NCI-H2405; first compound 0.08 µM) was 0.808. For the same molecule, the relative viability (NCI-H2405; first compound 0.253 µM) was 0.734, the relative viability (NCI-H2405; first compound 0.8 µM) was 0.879 and the relative viability (NCI-H2405; first compound 2.53 µM) was 0.803. For the same molecule, the relative viability (NCI-H2405; first compound 8 µM) was 0.852, the relative viability (LCLC-97TM1; first compound 0.08 µM) was 0.349 and the relative viability (LCLC-97TM1; first compound 0.253 µM) was 0.402. For the same molecule, the relative viability (LCLC-97TM1; first compound 0.8 µM) was 0.494, the relative viability (LCLC-97TM1; first compound 2.53 µM) was 0.338 and the relative viability (LCLC-97TM1; first compound 8 µM) was 0.303. The relative viability (NCI-H460; first compound 0.08 µM) was 0.413, the relative viability (NCI-H460; first compound 0.253 µM) was 0.503 and the relative viability (NCI-H460; first compound 0.8 µM) was 0.366. For the same molecule, the relative viability (NCI-H460; first compound 2.53 µM) was 0.356, the relative viability (NCI-H460; first compound 8 µM) was 0.377 and the relative viability (HCC-15; first compound 0.08 µM) was 0.686. For the same molecule, the relative viability (HCC-15; first compound 0.253 µM) was 0.752, the relative viability (HCC-15; first compound 0.8 µM) was 0.672 and the relative viability (HCC-15; first compound 2.53 µM) was 0.612. The relative viability (HCC-15; first compound 8 µM) was 0.785, the relative viability (NCI-H1993; first compound 0.08 µM) was 1.02 and the relative viability (NCI-H1993; first compound 0.253 µM) was 1.34. It also gave a relative viability (NCI-H1993; first compound 0.8 µM) of 0.676, a relative viability (NCI-H1993; first compound 2.53 µM) of 1.05 and a relative viability (NCI-H1993; first compound 8 µM) of 1.17. For the same molecule, the relative viability (201T; first compound 0.08 µM) was 0.812, the relative viability (201T; first compound 0.253 µM) was 0.897 and the relative viability (201T; first compound 0.8 µM) was 0.84. The relative viability (201T; first compound 2.53 µM) was 0.605, the relative viability (201T; first compound 8 µM) was 0.87 and the relative viability (NCI-H2085; first compound 0.08 µM) was 0.766. The relative viability (NCI-H2085; first compound 0.253 µM) was 0.61, the relative viability (NCI-H2085; first compound 0.8 µM) was 0.753 and the relative viability (NCI-H2085; first compound 2.53 µM) was 0.681. The relative viability (NCI-H2085; first compound 8 µM) was 0.725, the relative viability (HCC-78; first compound 0.08 µM) was 0.838 and the relative viability (HCC-78; first compound 0.253 µM) was 1.08. For the same molecule, the relative viability (HCC-78; first compound 0.8 µM) was 0.81, the relative viability (HCC-78; first compound 8 µM) was 0.823 and the relative viability (NCI-H3122; first compound 0.08 µM) was 0.662. It also gave a relative viability (NCI-H3122; first compound 0.253 µM) of 0.636, a relative viability (NCI-H3122; first compound 0.8 µM) of 0.567 and a relative viability (NCI-H3122; first compound 2.53 µM) of 0.51. The relative viability (NCI-H3122; first compound 8 µM) was 0.635.
